Format in all cases: cell-based
In experiment [1] the test system is endogenous stress granule formation. Nature of the experiment: NaAsO2 induced endogenous stress granule formation in cells expressing G3BP1-NcVVDY50W, inhibitor pre-treatment. As to conditions: NaAsO2 0.5 mM, 30 min; GSK2606414 added 1 hour before, cycloheximide 1 and a half hours before. The procedure: (§1) FIGS. 22A-22B. […] When endogenous stress granule formation is induced with NaAsO2 (0.5 mM, 30 min treatment), the G3BP1-NcVVDY50W forms stress granules that stain positive for key markers TIAR and eIF4G. When GSK2606414, a PERK kinase inhibitor, is added 1 hour before NaAsO2 treatment, endogenous stress granule formation is attenuated (FIG. 22A). When GSK2606414 is added 1 hour before blue light stimulation, there is no change in stress granule formation (FIG. 22B).
(§2) FIGS. 23A-23B. […] When endogenous stress granule formation is induced with NaAsO2 (0.5 mM, 30 min treatment), the G3BP1-NcVVDY50W forms stress granules that stain positive for the key marker eIF4G. When cycloheximide, a translational inhibitor, is added 1 and a half hours before NaAsO2 treatment, endogenous stress granule formation is attenuated (FIG. 23A).

The subject of experiment [2] is optogenetically induced stress granule formation. Nature of the experiment: Blue light (optogenetically) induced stress granule formation, inhibitor pre-treatment. Particulars: blue light stimulation; GSK2606414 added 1 hour before, cycloheximide 1 and a half hours before. How it is done:
as §1, §2
These light induced stress granules colocalize with key stress granule components, including Ataxin-2, TIAR, G3BP, eIF4G, eIF3H, RPS3, RPS6, TDP-43, FUS mRNA, and PABPC1 (FIGS. 2-9, 12, 13, 18, 20, 22, 23, 24, 25). Furthermore, the colocalization with mRNA (FIGS. 12 and 13) indicates the light induced stress granules are likely inhibiting mRNA translation. Note that the light induced stress granules appear identical to naturally occurring stress granules induced by heat shock treatment for 30 minutes at 42° C. […]

A further experiment relates to stress granules. Nature of the experiment: Cellular occurrence and structural characteristics of stress granules. Particulars: NaAsO2 0.5 mM, 30 min; cells expressing G3BP1-NcVVDY50W; Ataxin-2 positive. The procedure: FIGS. 11A-11D. […] Under normal conditions, G3BP1-NcVVDY50W remains diffuse in the cytoplasm. When endogenous stress granule formation is induced with NaAsO2 (0.5 mM, 30 min treatment), the G3BP1-NcVVDY50W forms stress granules that stain positive for the key marker Ataxin-2, and occur in the cell 11 times on average (FIG. 11A). They also have a defined shape that gives them a defined area (FIG. 11B), diameter (FIG. 11C) and circularity (FIG. 11D).

Experiment [3] has as its system HEK293 cells. Nature of the experiment: Blue light induced stress granules: staining for stress granule markers and mRNA. As to conditions: blue light stimulation. The text has this: FIGS. 2A-2B. Blue light induced stress granules using a NcVVDY50W-G3BP1 protein arrangement. […] A DNA arrangement that generates the NcVVDY50W-G3BP1 was developed and expressed in HEK293 cells. Under normal conditions, the NcVVDY50W-G3BP1 remains diffuse in the cytoplasm. When endogenous stress granule formation is induced with heat shock, the NcVVDY50W-G3BP1 forms stress granules that stain positive for key markers including Ataxin-2 and TIAR.
FIG. 5. […] Under normal conditions, G3BP1-NcVVDY50W remains diffuse in the cytoplasm. When endogenous stress granule formation is induced with NaAsO2 (0.5 mM, 30 min treatment), the G3BP1-NcVVDY50W forms stress granules that stain positive for key markers TDP-43 and eIF4G. […] As an example of this technology, DNA arrangements were developed that generated G3BP1-NcVVDY50W, and expressed in HEK293 cells. Under normal conditions, the G3BP1-NcVVDY50W remains diffuse in the cytoplasm. When endogenous stress granule formation is induced with sodium arsenite, the G3BP1-NcVVDY50W forms stress granules that probe positive for key markers, including TDP-43 and eIF4G. […] Inserts are 3D images of stress granules indicated by arrows.
While stress granule dynamics are shown to be altered in these diseases, the true contributions of stress granules to disease pathobiology is unknown since the only current method to form these organelles is to introduce an extracellular stressor (e.g. heat stress at 43° C., exposure to sodium arsenite) which is toxic to cells and ultimately kills the cells being studied. The longest studies of stress granules to date are only on the order of a few hours and so, the importance of these organelles in the initiation of neurodegeneration or cancer cannot be assessed. Therefore, a method to control stress granule formation was developed using light, without the need for any extracellular stressors. To achieve this, the DNA encoding specific photoreceptor protein domains that self-bind with blue light exposure were linked to the DNA of a key protein required for the formation of stress granules, G3BP1 or TIA1. These arrangements were then expressed in HEK293 cells and were tested for their ability to form functional stress granules with various blue light treatment paradigms. It was shown that the LOV photoreceptor domain, from the Vivid protein of N. crassa, which is known to dimerize with blue light exposure, when fused to G3BP1 and exposed to 15-1080 min of 465 nm light at 0.1-1.0 mW/cm2 initiates the formation of a core stress granule structure consisting of the photoreceptors fused to G3BP1 that recruits additional G3BP1 and accessory proteins that comprise stress granules and allow for their maturation. This likely involved the liquid-liquid phase separation (LLPS) and dimerization and oligomerization of G3BP1 (concept represented in FIG. 1).

In experiment [4] the test system is HEK293 cells. Nature of the experiment: Longitudinal live imaging of light induced stress granule dynamics. As to conditions: for dynamics / liquid-like behaviour of light induced stress granules: blue light on/off or chronic. How it is done:
FIG. 15. […] NcVVDY50W-G3BP1 was expressed in HEK293 cells. […] NcVVDY50W-G3BP1 expressing HEK293 cells were longitudinally imaged every 30 seconds and exposed to blue light in between each image for 30 minutes. The light was then removed and cells were imaged every 30 seconds without light in between each image to study the rate of formation and dissociation of the light induced stress granules.
FIGS. 17A-17B. […] FIG. 17A) NcVVDY50W-G3BP1 was expressed in HEK293 cells. Stress granule formation can be temporally controlled with light stimulation at different voltages. FIGS. 17B) NcVVDY50W-G3BP1 expressing HEK293 cells were longitudinally imaged every 30 seconds and exposed to different voltages (1.0V, or 5.0V, or 10.0V) of blue light in between each image for 30 minutes, over a time-course of 6 hours. The light was then removed and cells were imaged every 30 seconds without light in between each image to study the rate of formation of the light induced stress granules.
FIGS. 18A-18E. […] NcVVDY50W-G3BP1 was expressed in HEK293 cells. […] Light paradigms were developed to chronically form stress granules with light for up to 18 hours. The light induced stress granules are positive for both key markers such as PABPC1 and sequester mRNA throughout the time course, indicating they are functional. […] No previous study has been able to induce stress granule formation for more than 2-3 hours as the cells die from the treatment to induce stress granules. Thus, these are the first studies to create chronic stress granules for over 2-3 hours.
(§3) FIGS. 24A-24E. Replacing the G3BP1 NTF2 domain, which is required for G3BP1 self-oligomerization (optoSG), with oligomerizing photoreceptors, is sufficient to initiate the formation of optogenetic stress granules. FIG. 24A) Schematics of an additional approach to seed optoStress Granules (optoSGs) employing truncated G3BP1 protein and replacing the NTF2 oligomerizing domain with a photoreceptor with the capacity to oligomerize (in this instance Cry2-PHR, but also works with chronic stimulation of dimerizing photoreceptor). FIG. 24B) HEK cells expressing Cry2 PHR-[…]NTF-G3BP1 were exposed to blue light LED stimulation for 30 minutes to induce the formation of optoSGs.
FIGS. 25A-25C. OptoStress Granules (optoSGs) (Cry2-delta NTF-G3BP1) display liquid-like properties of membraneless organelles and colocalize with translation initiation factors and mRNA.

In another experiment the test system is protein synthesis. Nature of the experiment: De novo protein synthesis, HPG incorporation with Click-iT detection. Particulars: blue light stimulation; Click-iT detection. How it is done: FIGS. 14A-14B. […] The major function of endogenous stress granules is to bind mRNAs and halt protein synthesis until the cellular stress is removed. To test this, cells expressing G3BP1-NcVVDY50W were either exposed to blue light stimulation or not for 30 minutes and protein translation was assessed. Prior to the translation assay, cells were treated with cyclohexamide for one hour to inhibit protein synthesis and then the cyclohexamide was removed and cells were provided L-Homopropargylglycine (HPG) for one hour. HPG acts as a methionine amino acid analog and is incorporated into newly synthesized proteins. Click-iT™ chemistry was then performed to detect HPG and cells were imaged. Green signal indicates newly synthesized proteins during the time at which HPG is present in the media.
as §3

“Also recorded” adds a separate entry of the source.

With `Cn1cc(-c2ccc3c(c2)CCN3C(=O)Cc2cccc(C(F)(F)F)c2)c2c(N)ncnc21` [GSK2606414], the “endogenous stress granule formation” value in experiment [1] is “attenuated”. The “optogenetically induced stress granule formation” value in experiment [2] is reported as “no change”.
In the case of `O=[As]O` [NaAsO2, sodium arsenite], the “occurrence of stress granules in the cell, on average” value in the experiment with stress granules is on record as 11.
“NcVVDY50W-G3BP1: NcVivid Y50W with G3BP1 Full Length Protein, SEQ ID NO: 9”: in the experiment on HEK293 cells [3], the “colocalization of blue light induced stress granules with stress granule markers” value was “stained positive for Ataxin-2 and TIAR; also recorded: colocalize with the key stress granule marker eIF3H”; the “mRNA sequestration by blue light induced stress granules” value was “sequester cytoplasmic mRNA”. In the experiment with HEK293 cells [4] (HEK293 cells), the “dynamics / liquid-like behaviour of light induced stress granules” value was “repeatedly formed; also recorded: decrease in number and increase in size”. The “duration of chronically formed stress granules with light” value with HEK293 cells [4] (HEK293 cells, chronic light, no cell stressors) is “up to 18 hours”.
`C[C@@H]1C[C@@H]([C@H](O)CC2CC(=O)NC(=O)C2)C(=O)[C@@H](C)C1` [cycloheximide]: the “endogenous stress granule formation” value in experiment [1] is given as “attenuated”. Further, the “optogenetically induced stress granule formation” value in experiment [2] is on record as “inhibited; also recorded: fail to form”.

B1: Cry2 PHR-[…]NTF-G3BP1: Cry2PHR with G3BP1 NTF2 Domain Deletion Mutation, SEQ ID NO: 94 (protein)
chain: MKMDKKTIVWFRRDLRIEDNPALAAAAHEGSVFPVFIWCPEEEGQFYPGRASRWWMKQSLAHLSQSLKALGSDLTLIKTHNTISAILDCIRVTGATKVVFNHLYDPVSLVRDHTVKEKLVERGISVQSYNGDLLYEPWEIYCEKGKPFTSFNSYWKKCLDMSIESVMLPPPWRLMPITAAAEAIWACSIEELGLENEAEKPSNALLTRAWSPGWSNADKLLNEFIEKQLIDYAKNSKKVVGNSTSLLSPYLHFGEISVRHVFQCARMKQIIWARDKNSEGEESADLFLRGIGLREYSRYICFNFPFTHEQSLLSHLRFFPWDADVDKFKAWRQGRTGYPLVDAGMRELWATGWMHNRIRVIVSSFAVKFLLLPWKWGMKYFWDTLLDADLECDILGWQYISGSIPDGHELDRLDNPALQGAKYDPEGEYIRQWLPELARLPTEWIHHPWDAPLTVLKASGVELGTNYAKPIVDIDTARELLAKAISRTREAQIMIGAAMGFVTEPQEESEEEVEEPEERQQTPEVVPDDSGTFYDQAVVSNDMEEHLEEPVAEPEPDPEPEPEQEPVSEIQEEKPEPVLEETAPEDAQKSSSPAPADIAQTVQEDLRTFSWASVTSKNLPPSGAVPVTGIPPHVVKVPASQPRPESKPESQIPPQRPQRDQRVREQRINIPPQRGPRPIREAGEQGDIEPRRMVRHPDSHQLFIGNLPHEVDKSELKDFFQSYGNVVELRINSGGKLPNFGFVVFDDSEPVQKVLSNRPIMFRGEVRLNVEEKKTRAAREGDRRDNRLRGPGGPRGGLGGGMRGPPRGGMVQKPGFGVGRGLAPRQKLIPMARRAWLEHGHSCFLCEIVIRSQFHTTYEPEA
B1: the “colocalization of blue light induced stress granules with stress granule markers” value in the experiment on HEK293 cells [3] was “colocalize with endogenous stress granule markers including PABPC1 and the 40S ribosomal component RPS3; also recorded: colocalize with mature stress granule markers Ataxin2 and eIF4G translational factors”. Also, the “protein synthesis (HPG signal) with light-induced stress granules” value in the experiment with protein synthesis is listed as “inhibit cellular protein synthesis to a similar degree as sodium arsenite induced stress granules”. The “dynamics / liquid-like behaviour of light induced stress granules” value in the experiment with HEK293 cells [4] (HEK293 cells) is given as “exhibit the liquid-like droplet properties of endogenously formed stress granules”. The “time to optoSG formation” value in the experiment with HEK293 cells [4] (HEKs, blue light LED stimulation) amounted to 15 min.

The values above are taken from patent publication US20250313849A1, “OPTOGENETIC INDUCTION OF MEMBRANELESS ORGANELLES” (UNIVERSITY OF PITTSBURGH-OF THE COMMONWEALTH SYSTEM OF …, priority 2017, published 2025).
